Test results as given in PubChem BioAssay AID2060501 (Molecular Pharmacology Branch, DTP, NCI, 2025).
Blank lines part the entries; values can stand above or below the compound they belong to.

Tested on: 282377-053-R-J1-PDC complex spheroids, viability
Assay: Anticancer human tumor 282377-053-R-J1-PDC patient-derived colon adenocarcinoma cell line growth inhibition [GQUAD]
Settings: for IC50: curve of first compound; for viability, T/C: stronger effect = lower value
Procedure, shortened: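 Tumor cells were grown as complex spheroids with HUVEC endothelial cells and mesenchymal stem cells as stroma. G-quadruplex stabilizers were combined with targeted agents over half-log dilutions from near the clinical Cmax, or from 10 microM.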

[1] = second compound 0.0316 µM, first compound 0.0316 µM
[2] = second compound 0.0316 µM, first compound 0.1 µM
[3] = second compound 0.0316 µM, first compound 0.316 µM
[4] = second compound 0.0316 µM, first compound 1 µM
[5] = second compound 0.0316 µM, first compound 3.16 µM
[6] = second compound 0.0316 µM, first compound 10 µM
[7] = second compound 0.1 µM, first compound 0.0316 µM
[8] = second compound 0.1 µM, first compound 0.1 µM
[9] = second compound 0.1 µM, first compound 0.316 µM
[10] = second compound 0.1 µM, first compound 1 µM
[11] = second compound 0.1 µM, first compound 3.16 µM
[12] = second compound 0.1 µM, first compound 10 µM
[13] = second compound 0.316 µM, first compound 0.0316 µM
[14] = second compound 0.316 µM, first compound 0.1 µM
[15] = second compound 0.316 µM, first compound 0.316 µM
[16] = second compound 0.316 µM, first compound 1 µM
[17] = second compound 0.316 µM, first compound 3.16 µM
[18] = second compound 0.316 µM, first compound 10 µM
[19] = second compound 1 µM, first compound 0.0316 µM
[20] = second compound 1 µM, first compound 0.1 µM
[21] = second compound 1 µM, first compound 0.316 µM
[22] = second compound 1 µM, first compound 1 µM
[23] = second compound 1 µM, first compound 3.16 µM
[24] = second compound 1 µM, first compound 10 µM
[25] = second compound 3.16 µM, first compound 0.0316 µM
[26] = second compound 3.16 µM, first compound 0.1 µM
[27] = second compound 3.16 µM, first compound 0.316 µM
[28] = second compound 3.16 µM, first compound 1 µM
[29] = second compound 3.16 µM, first compound 3.16 µM
[30] = second compound 3.16 µM, first compound 10 µM
[31] = second compound 10 µM, first compound 0.0316 µM
[32] = second compound 10 µM, first compound 0.1 µM
[33] = second compound 10 µM, first compound 0.316 µM
[34] = second compound 10 µM, first compound 1 µM
[35] = second compound 10 µM, first compound 3.16 µM
[36] = second compound 10 µM, first compound 10 µM
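Further: spheroids exposed to compounds for 7 days before readout.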
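Wherever viability, T/C is given: percent of vehicle DMSO control viability with 100% = untreated-like growth.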

- IC50 (second compound 0.0316 µM): > 10000 nM
- IC50 (second compound 0.1 µM): > 10000 nM
- IC50 (second compound 0.316 µM): > 10000 nM
- IC50 (second compound 1 µM): > 10000 nM
- IC50 (second compound 3.16 µM): 865 nM
- IC50 (second compound 10 µM): < 31.6 nM
Structure (SMILES): COc1ncnc(C2CC2)c1-c1ncc2cnn(Cc3ccc(-c4nc(C(F)(F)F)cn4C(C)C)cc3)c2n1 + Cc1cnc(CNC(=O)c2c(=O)c3ccc(N4CCCN(C)CC4)nc3n3c2sc2ccccc23)cn1
- viability, T/C [1]: 108%
- viability, T/C [2]: 107%
- viability, T/C [3]: 119%
- viability, T/C [4]: 92.6%
- viability, T/C [5]: 123%
- viability, T/C [6]: 95.3%
- viability, T/C [7]: 121%
- viability, T/C [8]: 96.2%
- viability, T/C [9]: 94.4%
- viability, T/C [10]: 100%
- viability, T/C [11]: 125%
- viability, T/C [12]: 93.5%
- viability, T/C [13]: 105%
- viability, T/C [14]: 78.3%
- viability, T/C [15]: 71.1%
- viability, T/C [16]: 76.2%
- viability, T/C [17]: 76.5%
- viability, T/C [18]: 82.3%
- viability, T/C [19]: 60.6%
- viability, T/C [20]: 54.8%
- viability, T/C [21]: 55.8%
- viability, T/C [22]: 52.8%
- viability, T/C [23]: 57.9%
- viability, T/C [24]: 55.9%
- viability, T/C [25]: 53.3%
- viability, T/C [26]: 49.2%
- viability, T/C [27]: 49.2%
- viability, T/C [28]: 49.7%
- viability, T/C [29]: 52.8%
- viability, T/C [30]: 47.1%
- viability, T/C [31]: 41.1%
- viability, T/C [32]: 45.2%
- viability, T/C [33]: 46.5%
- viability, T/C [34]: 46.6%
- viability, T/C [35]: 50.3%
- viability, T/C [36]: 35.6%

Structure (SMILES): CC(C)n1c(=O)n(C)c2cnc3cc(F)c(-c4ccc(OCCCN5CCCCC5)nc4)cc3c21 + CN(C)c1ccc(Nc2c3ccc(NC(=O)CCN4CCCC4)cc3nc3cc(NC(=O)CCN4CCCC4)ccc23)cc1
- IC50 (second compound 0.0316 µM): > 10000 nM
- IC50 (second compound 0.1 µM): > 10000 nM
- IC50 (second compound 0.316 µM): > 10000 nM
- IC50 (second compound 1 µM): > 10000 nM
- IC50 (second compound 3.16 µM): > 10000 nM
- IC50 (second compound 10 µM): > 10000 nM
- viability, T/C [1]: 97.9%
- viability, T/C [2]: 108%
- viability, T/C [3]: 102%
- viability, T/C [4]: 106%
- viability, T/C [5]: 104%
- viability, T/C [6]: 101%
- viability, T/C [7]: 92.5%
- viability, T/C [8]: 101%
- viability, T/C [9]: 89.5%
- viability, T/C [10]: 108%
- viability, T/C [11]: 89.4%
- viability, T/C [12]: 90.9%
- viability, T/C [13]: 100%
- viability, T/C [14]: 107%
- viability, T/C [15]: 108%
- viability, T/C [16]: 103%
- viability, T/C [17]: 88.3%
- viability, T/C [18]: 101%
- viability, T/C [19]: 106%
- viability, T/C [20]: 96.8%
- viability, T/C [21]: 99.7%
- viability, T/C [22]: 94.4%
- viability, T/C [23]: 105%
- viability, T/C [24]: 91%
- viability, T/C [25]: 113%
- viability, T/C [26]: 108%
- viability, T/C [27]: 102%
- viability, T/C [28]: 114%
- viability, T/C [29]: 110%
- viability, T/C [30]: 108%
- viability, T/C [31]: 106%
- viability, T/C [32]: 102%
- viability, T/C [33]: 110%
- viability, T/C [34]: 99.7%
- viability, T/C [35]: 97.7%
- viability, T/C [36]: 57.7%

Structure (SMILES): CC1COCCN1c1cc(C2(O)CC3CCC(C2)O3)c2cnn(-c3ccn[nH]3)c2n1 (stereo unspecified) + Cc1[nH]c2ccc(F)cc2c1-c1nc2c3cccnc3c3ncccc3c2[nH]1
- IC50 (second compound 0.0316 µM): 626 nM
- IC50 (second compound 0.1 µM): 509 nM
- IC50 (second compound 0.316 µM): 293 nM
- IC50 (second compound 1 µM): 248 nM
- IC50 (second compound 3.16 µM): 35 nM
- IC50 (second compound 10 µM): < 31.6 nM
- viability, T/C [1]: 81.3%
- viability, T/C [2]: 73.1%
- viability, T/C [3]: 71.7%
- viability, T/C [4]: 35%
- viability, T/C [5]: 25.7%
- viability, T/C [6]: 17.6%
- viability, T/C [7]: 88.2%
- viability, T/C [8]: 85.7%
- viability, T/C [9]: 59.6%
- viability, T/C [10]: 34.1%
- viability, T/C [11]: 25.6%
- viability, T/C [12]: 16.6%
- viability, T/C [13]: 71.5%
- viability, T/C [14]: 88.2%
- viability, T/C [15]: 47.8%
- viability, T/C [16]: 35.2%
- viability, T/C [17]: 24.7%
- viability, T/C [18]: 16.2%
- viability, T/C [19]: 71.7%
- viability, T/C [20]: 65.5%
- viability, T/C [21]: 45.4%
- viability, T/C [22]: 25.4%
- viability, T/C [23]: 16.4%
- viability, T/C [24]: 9.51%
- viability, T/C [25]: 52%
- viability, T/C [26]: 28.9%
- viability, T/C [27]: 11.3%
- viability, T/C [28]: 5.76%
- viability, T/C [29]: 3.99%
- viability, T/C [30]: 3.21%
- viability, T/C [31]: 31.2%
- viability, T/C [32]: 16.5%
- viability, T/C [33]: 8.68%
- viability, T/C [34]: 2.7%
- viability, T/C [35]: 2.23%
- viability, T/C [36]: 2.03%
